According to article PMC12624573, “The antigen presentation landscape of cytokine-stressed human pancreatic islets” (Cell reports, 2025):

Assays:
CD4+ T cells from PBMC = experiment: IFN-γ ELISpot, PBMC-derived in vitro expanded CD4+ T cell lines; format: cell-based, human; design: key to T cell recognition by PBMC from a T1D donor (mark E) / T cell recognition by PBMC from a T1D donor: E: T cell recognition by PBMC from a T1D donor was tested and verified; see Figure 5; settings: for T1D Donor T cell response / non-T1D Donor T cell response: PBMC T cell lines, responding donors/donors tested; for T cell recognition by PBMC from a T1D donor (mark E) / T cell recognition by PBMC from a T1D donor: MHC-II peptides; for T cell recognition by PBMC from a T1D donor (mark E): tested and verified, see Figure 5; for Number of donors whose CD4 T cells recognized the peptide (IFN-γ ELISpot): T1D donors, PBMC-derived lines (Figure 5J); for IFN-γ ELISpot response of expanded CD4 T cells: control donor LSLP-153, line expanded with megapool HPAP-DR3 + SEC-DR3, tested with individual peptides (Figure S5C); for T cell recognition by PBMC from a T1D donor: superscript E on the peptide, G = verified with QBL cells
CD8+ T cells from PBMC = experiment: IFN-γ ELISpot, PBMC-derived in vitro expanded CD8+ T cell lines; format: cell-based, human; settings: A2 Set Peptides; PBMC T cell lines; responding donors/donors tested
[1] = SEC (Secretory) DR3 Peptides Set
[2] = PTM and unmodified native Pool Peptides (pool PTM 1), long peptides

Question: For “AAIQDGLAKGENDETVSNT [compound 190, secretory hormone eluted peptide, pool SEC DR3]”, which “T1D Donor T cell response” value (CD4+ T cells from PBMC; [1]) is on record?
Answer: 0/4

Question: What about the “non-T1D Donor T cell response” value (CD4+ T cells from PBMC; [1]) of the same substance?
Answer: 0/4

Question: For “AEDLQVGEVELGGGPGAGSLQPL [145-1, PTM peptide, E=deamidated Q=glutamic acid, pool PTM DR3]”, which “T1D Donor T cell response” value (CD4+ T cells from PBMC; [2]) is on record?
Answer: 0/4

Question: What about the “non-T1D Donor T cell response” value (CD4+ T cells from PBMC; [2]) of the same substance?
Answer: 0/4

Question: For “AEDLQVGQVELGGGPGAGSLQPL [compound 145, non-modified native peptide, pool PTM DR3]”, which “T1D Donor T cell response” value (CD4+ T cells from PBMC; [2]) is on record?
Answer: 0/4

Question: What about the “non-T1D Donor T cell response” value (CD4+ T cells from PBMC; [2]) of the same substance?
Answer: 0/4

Question: AELEDDFKEGYLE was tested. Which “T cell recognition by PBMC from a T1D donor (mark E)” value (shortened to “T cell recognition … (mark E)”) (CD4+ T cells from PBMC) did it give?
Answer: AE LEDDFKEGY LE ^ E

Question: How did the “T1D Donor T cell response” value (CD4+ T cells from PBMC; DR3/DQ Set Peptides) turn out when AELEDDFKEGYLE [peptide 2] was run?
Answer: 2/4

Question: And the “non-T1D Donor T cell response” value (CD4+ T cells from PBMC; DR3/DQ Set Peptides)?
Answer: 1/2

Question: And the “Number of donors whose CD4 T cells recognized the peptide (IFN-γ ELISpot)” value (CD4+ T cells from PBMC)?
Answer: three of the donors

Question: And the “IFN-γ ELISpot response of expanded CD4+ T cells” value (CD4+ T cells from PBMC; control donor LSLP-074, frequencies ∼10-fold lower than for T1D-004 (Figures 5E, 5F, S5B))?
Answer: responded

Question: Which “T cell recognition … (mark E)” value (CD4+ T cells from PBMC) does the source give for APGY LAITKKVAV PY here?
Answer: E

Question: APGYLAITKKVAVPY [compound 30] was tested. Which “T1D Donor T cell response” value (CD4+ T cells from PBMC; DR3/DQ Set Peptides) did it give?
Answer: 3/4

Question: What about the “non-T1D Donor T cell response” value (CD4+ T cells from PBMC; DR3/DQ Set Peptides) of the same substance?
Answer: 1/2

Question: And the “Number of donors whose CD4 T cells recognized the peptide (IFN-γ ELISpot)” value (CD4+ T cells from PBMC)?
Answer: three of the donors

Question: What does the source list for APGYLAITKKVAVPY [compound 151]?
Answer: T1D Donor T cell response (CD4+ T cells from PBMC; HPAP-DR3 Pool Peptides): 0/4; non-T1D Donor T cell response (CD4+ T cells from PBMC; HPAP-DR3 Pool Peptides): 1/4; IFN-γ ELISpot response of expanded CD4 T cells (CD4+ T cells from PBMC): positive response

Question: “AVPEEEGPTVVLNPHPSLG [peptide 148, non-modified native peptide from CHGA, pool PTM DR3]” was tested. Which “T1D Donor T cell response” value (CD4+ T cells from PBMC; [2]) did it give?
Answer: 0/4

Question: What about the “non-T1D Donor T cell response” value (CD4+ T cells from PBMC; [2]) of the same substance?
Answer: 0/4

Question: “AVPEEEGPTVVLXPHPSLG [AVPEEEGPTVVLXPHPSLG (X=deamindated N=asp)]” was tested. Which “T cell recognition by PBMC from a T1D donor” value (CD4+ T cells from PBMC) did it give?
Answer: AVPEEEGPTVVLXPHPSLG^E,G (X=deamindated N=asp)

Question: “AVPEEEGPTVVLXPHPSLG [AVPEEEGPTVVLXPHPSLG (X=deamindated N=isoasp)]” was tested. Which “T cell recognition by PBMC from a T1D donor” value (CD4+ T cells from PBMC) did it give?
Answer: AVPEEEGPTVVLXPHPSLG^E,G (X=deamindated N=isoasp)

Question: DDALVRQDAQDLYEAG [compound 9] was tested. Which “T1D Donor T cell response” value (CD4+ T cells from PBMC; DR3/DQ Set Peptides) did it give?
Answer: 0/4

Question: And the “non-T1D Donor T cell response” value (CD4+ T cells from PBMC; DR3/DQ Set Peptides)?
Answer: 0/2

Question: What does the source list for “DDPDGLHQLDGTPLTAED [compound 189, secretory hormone eluted peptide from SCG3, pool SEC DR3]”?
Answer: T1D Donor T cell response (CD4+ T cells from PBMC; [1]): 0/4; non-T1D Donor T cell response (CD4+ T cells from PBMC; [1]): 1/4; IFN-γ ELISpot response of expanded CD4 T cells (CD4+ T cells from PBMC): IFN-γ responses

Question: How did the “T1D Donor T cell response” value (CD4+ T cells from PBMC; DR3/DQ Set Peptides) turn out when DLNGDLTATREEF [compound 5] was run?
Answer: 0/4

Question: What about the “non-T1D Donor T cell response” value (CD4+ T cells from PBMC; DR3/DQ Set Peptides) of the same substance?
Answer: 0/2

Question: How did the “T1D Donor T cell response” value (CD4+ T cells from PBMC; [1]) turn out when “DNMNDNFLEGEEENELTLN [compound 185, secretory hormone eluted peptide, pool SEC DR3]” was run?
Answer: 0/4

Question: And the “non-T1D Donor T cell response” value (CD4+ T cells from PBMC; [1])?
Answer: 0/4

Question: For EDYYVSKSAVVFGG, which “T cell recognition … (mark E)” value (CD4+ T cells from PBMC) is on record?
Answer: ED YYVSKSAVV FGG ^ E

Question: What does the source list for EDYYVSKSAVVFGG [compound 28]?
Answer: T1D Donor T cell response (CD4+ T cells from PBMC; DR3/DQ Set Peptides): 2/4; non-T1D Donor T cell response (CD4+ T cells from PBMC; DR3/DQ Set Peptides): 1/2

Question: For ELSAERPLNEQIAEAE, which “T cell recognition … (mark E)” value (CD4+ T cells from PBMC) is on record?
Answer: ELSAERP LNEQIAEAE ^ E

Question: Which results are given for “ELSAERPLNEQIAEAE [compound 144, non-modified native peptide, pool PTM DR3]”?
Answer: T1D Donor T cell response (CD4+ T cells from PBMC; [2]): 0/4; non-T1D Donor T cell response (CD4+ T cells from PBMC; [2]): 0/4

Question: What does the source list for “ELSAERPLNEQIAEAE [compound 186, secretory hormone eluted peptide from SCG3, pool SEC DR3]”?
Answer: T1D Donor T cell response (CD4+ T cells from PBMC; [1]): 0/4; non-T1D Donor T cell response (CD4+ T cells from PBMC; [1]): 1/4; IFN-γ ELISpot response of expanded CD4 T cells (CD4+ T cells from PBMC): IFN-γ responses

Question: What does the source list for ELSAERPLNEQIAEAE [peptide 32]?
Answer: T1D Donor T cell response (CD4+ T cells from PBMC; DR3/DQ Set Peptides): 1/4; non-T1D Donor T cell response (CD4+ T cells from PBMC; DR3/DQ Set Peptides): 0/2

Question: Which “T1D Donor T cell response” value (CD4+ T cells from PBMC; [2]) does the source give for “ELXAERPLNEQIAEAE [144-1, PTM peptide, X=dehydroS=dehydroAla, pool PTM DR3]” here?
Answer: 0/4

Question: And the “non-T1D Donor T cell response” value (CD4+ T cells from PBMC; [2])?
Answer: 0/4

Question: ETDKEQLTAEAKELRQK was tested. Which “T cell recognition … (mark E)” value (CD4+ T cells from PBMC) did it give?
Answer: ETDKEQ LTAEAKELR QK ^ E

Question: What does the source list for ETDKEQLTAEAKELRQK [peptide 6]?
Answer: T1D Donor T cell response (CD4+ T cells from PBMC; DR3/DQ Set Peptides): 1/4; non-T1D Donor T cell response (CD4+ T cells from PBMC; DR3/DQ Set Peptides): 0/2

Question: YLLEKNRVV [compound 117, 15] was tested. Which “T1D Donor T cell response” value (CD8+ T cells from PBMC) did it give?
Answer: 0/4

Question: What about the “non-T1D Donor T cell response” value (CD8+ T cells from PBMC) of the same substance?
Answer: 0/2

Question: What does the source list for YLLEKSRVV [compound 118, 15]?
Answer: T1D Donor T cell response (CD8+ T cells from PBMC): 0/4; non-T1D Donor T cell response (CD8+ T cells from PBMC): 0/2
